Measured values published in article PMC8453745, “Human Mass Balance and Metabolite Profiling of [^14C]‐Pamiparib, a Poly (ADP‐Ribose) Polymerase Inhibitor, in Patients With Advanced Cancer” (Clinical Pharmacology in Drug Development, 2021).
Values joined by “and” are separate entries in the source; they are usually repeats but may differ in a detail not shown here. Identical values can stand only once.

Columns and labels:
[1] = metabolite profiling in plasma (radioprofiling, LC‐MS); type: in vivo, human
Procedure: Total radioactivity concentrations of [^14C]‐pamiparib in whole blood, plasma, urine, and feces were determined by liquid scintillation counting (LSC). Radioactivity in each sample was measured for 5 minutes using a Packard Tri‐Carb liquid scintillation counter model 2100TR, 2900TR, or 3100TR (Canberra Packard, Pangbourne, Berks, Australia) with the facilities for computing quench‐corrected disintegrations per minute. Metabolite identification in plasma, urine, and feces was conducted by LC‐MS. Quantitation of the metabolites present in plasma, urine, and feces was based on the profiles of radioactivity. The limit of quantitation for radioactivity in plasma, urine, and feces was set at 1% of each chromatographic analysis (run) and 10 counts per minute (cpm) peak height; therefore, radioactive peaks that were <1% of the total run or <10 cpm peak height were reported as not detected. In addition, pamiparib and standards were reported, regardless of the percentage of run or peak height.
For metabolite profiling in plasma, ≈1.9 to 2.8 g of each plasma sample collected 0.5, 1, 2, 6, 12, and 24 hours postdose was extracted twice with 6 mL of 0.1% formic acid in acetonitrile (ACN). Duplicate aliquots were analyzed by LSC to determine extraction recoveries, which ranged from 77.4% to 98.5%. The combined supernatants were evaporated to dryness under nitrogen and reconstituted in 2:1 reverse osmosis water:methanol (MeOH). Duplicate aliquots were analyzed by LSC to determine reconstitution recoveries, which ranged from 89.3% to 115%. The reconstituted samples were analyzed by LC‐MS, with eluent fractions collected at 10‐second intervals into 96‐well plates containing solid scintillant. Radioactivity in each well was determined using TopCount analysis, and radiochemical profiles were generated based on radioactivity counts.
Metabolic profiling was performed on plasma, urine, and feces samples using LC‐MS. Shimadzu/Nexera LC‐30AD pumps and Shimadzu/Prominence DGU‐20A5R degasser were used with Shimadzu/Prominence controller CBM‐20A. The high‐pressure liquid chromatograph (HPLC) was equipped with an autoinjector (Shimadzu/Nexera SIL‐30ACMP) set at 10°C and a fraction collector (Leap Technologies PAL HTC‐xt) set at 15°C. Thermo Fisher Scientific Q Exactive was the mass spectrometer system.

[2] = tested on: CYP1A2, CYP2B6, CYP2C9, CYP2C19; experiment: CYP450 phenotyping in HLMs with all other CYP inhibitors; type: in vitro ADME, human; details: HLM incubation
Procedure: Metabolic stability in human liver microsomes (HLMs) and cytochrome P450 (CYP450) phenotyping assays were conducted in 3D BioOptima (Suzhou, China) using validated methodology, [13] to determine the intrinsic clearance and enzymes responsible for metabolism of pamiparib. HLMs for microsome stability was from BD Biosciences (Woburn, New York). For phenotyping, HLMs and recombinant P450 (rCYP) were from Corning (Woburn, New York). Pamiparib (1 μM) was incubated with pooled HLM (0.5 mg/mL), NADPH (1 mM), and MgCl2 (3 mM) terminated at 0, 5, 15, 30, 60, and 90 minutes. The intrinsic clearance was calculated as 0.693/(t1/2 × HLM concentration), where t1/2 is the half‐life of pamiparib determined in HLMs. For phenotyping in HLMs, pamiparib (1 μM) was incubated in the absence or presence of isoform‐selective inhibitors: 0.2 μM α‐naphthoflavone for CYP1A2, 2 μM clopidogrel for CYP2B6, 16 μM montelukast for CYP2C8, 10 μM sulfaphenazole for CYP2C9, 30 μM nootkatone for CYP2C19, 2 μM quinidine for CYP2D6, and 1 μM ketoconazole for CYP3A. The following isoform‐selective probe substrates served as positive controls: 40 μM phenacetin for CYP1A2, 100 μM bupropion for CYP2B6, 2 μM amodiaquine for CYP2C8, 5 μM diclofenac for CYP2C9, 40 μM S‐mephenytoin for CYP2C19, 5 μM dextromethorphan for CYP2D6, and 2 μM midazolam for CYP3A4. […] Pamiparib, M1, and M2 were analyzed by LC‐MS/MS.

[3] = tested on: PARP2; set-up: method as in PMID 33264017; details: read-out: PARP2 inhibition IC50; cited from earlier work
[4] = tested on: BRCA1 mutant mouse xenograft; details: BRCA1 mutant mouse xenograft model; cited from earlier work

C[C@]12CCCN1CC1=NNC(=O)c3cc(F)cc4[nH]c2c1c34 [Pamiparib]
AUC0‐t, geometric mean ([1]; based on high‐performance liquid chromatography‐liquid scintillation counting): 19670 ngEq·h/mL | Cmax, geometric mean ([1]; based on high‐performance liquid chromatography‐liquid solid chromatography): 1737 ngEq/mL | mean percent of total radioactivity exposure in plasma (AUC0‐24h) ([1]; plasma, mean of patients): 67.2% ± 10.2% and 67.2% and 67% | Percent of Total Radioactivity Concentration (AUC0‐24h) ([1]; plasma, patient S101): 78.0% | Percent of Total Radioactivity Concentration (AUC0‐24h) ([1]; plasma, patient S102): 72.6% | Percent of Total Radioactivity Concentration (AUC0‐24h) ([1]; plasma, patient S103): 63.2% | Percent of Total Radioactivity Concentration (AUC0‐24h) ([1]; plasma, patient S104): 55.0% | effect of all other CYP inhibitors on pamiparib metabolism [2]: nearly no effect | IC50 [3]: 0.9 nM | antitumor activity [4]: strong antitumor activity | potency compared with olaparib [4]: more potent than olaparib
